The values below come from patent US20230067159A1, “ROR-GAMMA-T INHIBITOR, PREPARATION METHOD THEREOF AND USE THEREOF” (priority 2020, published 2023).

Series [1] in a line: Stability in human liver microsomes. The class given is in vitro ADME. The conditions noted are these: pH 7.4. The procedure: Biological Example 4 Stability of the Compounds of the Present Invention in Human and Rat Liver Microsomes
Human or rat liver microsomes were incubated in double wells in polypropylene tubes. A typical incubation mixture included human or rat liver microsomes (final concentration: 0.5 mg protein/mL), target compound (final concentration: 1.5 μM), and K-phosphate buffered solution (containing […] EDTA, 100 mM, pH=7.4) in a total volume of 30 μL. Compounds were dissolved in DMSO and diluted with K-phosphate buffered solution to give a final working solution concentration of 30 μM. After 10 min of pre-incubation, 25 μL of test compound or positive control solution was transferred to the microsomal solution. The mixture was mixed well and 30 μL of the mixture was immediately pipetted, ice-cold acetonitrile was added, then 15 μL of NADPH was added as T0. 15 μL of NADPH (final concentration: 2 mM) was added to 30 μL of the mixture for the enzymatic reaction, and the entire experiment was carried out in an incubation tube at 37° C. At various time points (0, 20 and 60 min), the reaction was stopped by adding 150 μL of acetonitrile (with internal standard). The protein was removed by centrifugation at 4000 rpm for 10 min, and the supernatant was collected and analyzed by LC-MS/MS.
For each reaction, the concentration of compound in the incubation of human or rat liver microsomes was plotted (expressed as a percentage) as a percentage relative to the zero time point to infer in vitro metabolic half-life and in vivo intrinsic hepatic clearance rate.

A short description of series [2]: Pharmacokinetic evaluation I in ICR mice. In kind it is in vivo. The conditions noted are these: mouse, plasma, po. The procedure: Biological Example 2 Pharmacokinetic Evaluation I
ICR mice were weighed after an overnight fast for 15 h, and then randomly divided into groups according to body weight. The test compounds were formulated in a vehicle of 10% DMSO 10% kolliphor HS15^+ 80% Saline. For the test group administered intravenously (indicated by i.v.), the test animals were administered a dose of 1 mg/kg; for the test group administered by oral administration (indicated by p.o.), the test animals were administered a dose of 5 mg/kg. Then, at time points 0, 0.083 (intravenous injection group only), 0.25, 0.5, 1.0, 2.0, 5.0, 7.0 and 24 h, venous blood (approximately 0.2 mL) was collected and placed in an EDTAK2 anticoagulation tube, then centrifuged at 11,000 rpm for 2 min. Plasma was collected and stored at −20° C. or −70° C. until LC/MS/MS analysis. The drug concentration in plasma was measured at each time point, and the pharmacokinetic parameters were calculated according to the drug concentration-time curve.

A further series concerns the target T1, RORγ (Homo sapiens, UniProt P51449).
T1 construct: The concentration of B-RORγ LBD was 40 nM
T1 sequence (P51449 269-508 limits assumed): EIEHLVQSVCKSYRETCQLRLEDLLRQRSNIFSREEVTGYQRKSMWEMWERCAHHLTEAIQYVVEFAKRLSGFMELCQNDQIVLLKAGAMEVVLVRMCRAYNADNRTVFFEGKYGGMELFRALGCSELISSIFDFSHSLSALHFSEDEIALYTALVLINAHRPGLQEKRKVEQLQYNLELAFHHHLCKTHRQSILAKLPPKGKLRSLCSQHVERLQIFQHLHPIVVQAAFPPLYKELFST
Description: Fluorescence resonance energy transfer (FRET) test, B-RORγ LBD / Biotin-SRC1. In kind it is biochemical. The procedure:
Biological Example 1 Fluorescence Resonance Energy Transfer (FRET) Test
(1) Preparation of RORγ Test Buffer and 10 mM of DTT
100 mL of 1× Basic test buffer (HEPES (pH 7.4), 100 mM NaCl, 0.01% BSA) was prepared, and 154.25 mg of DTT was added. The mixture was well mixed.
(2) Preparation of Compound with Gradient Concentration
a. Standard compound was prepared: Standard compound was diluted with 100% DMSO to 2.5 mM, then diluted 3-fold with 11 serial dilutions to a final concentration of […];
b. Test compound was prepared referring to the standard compound.
(3) Preparation of 1× Protein Solution Mixture
a. Preparation of the desired amount of 2× B-RORγ LBD/SA-APC protein mixture: The concentration of B-RORγ LBD was 40 nM, and the concentration of SA-APC was 20 nM. They were mixed by gently inversion, and incubated at room temperature for 15 minutes. Then 400 nM of biotin was added. The mixture was mixed by gently inversion, and incubated at room temperature for 10 minutes;
b. Preparation of the desired amount of 2× Biotin-SRC1/SA-eu protein mixture: The concentration of Bioin-SRC1 was 40 nM, and the concentration of SA-eu was 20 nM. They were mixed by gently inversion, and incubated at room temperature for 15 minutes. Then 200 nM of biotin was added. The mixture was mixed by gently inversion, and incubated at room temperature for 10 minutes;
c. The protein mixtures prepared in step a and step b were mixed at a ratio of 1:1, and incubated at room temperature for 5 minutes;
d. 25 μL of the mixture from step c was added to the 384-well plate containing the test compound;
e. The mixture was centrifuged at 1000 rpm for one minute;
f. The mixture was incubated for 1 hour at room temperature.
(4) Data Collection and Calculation
After incubation at room temperature for 1 hour, the fluorescence values at 665 nm and 615 nm were measured with an EnVision plate reader, and the inhibition rate was calculated.
Inhibition rate %)=[(X−Min)/(Max−Min)]×100%
X is the fluorescence value ratio of “665/615” of the test compound; Min is the average value of “665/615” of the DMSO blank control; Max is the average value of “665/615” of the 10 μM SRC.

Molecules are shown by their SMILES. pIC50: −log10 of the molar value.

`CCS(=O)(=O)c1ccc([C@H](CO)NC(=O)c2ccc(N3C[C@@H](Oc4ccc(C(F)(F)F)cc4)C[C@H]3COC(F)(F)F)cc2)cc1` [Example 48, N—((R)-1-(4-(ethylsulfonyl)phenyl)-2-hydroxyethyl)-4-((2S,4S)-2-((trifluoromethoxy)methyl)-4-(4-(trifluoromethyl)phenoxy)pyrrolidin-1-yl)benzamide]: the half-life at 1.5 μM in series [1] (human liver microsomes 0.5 mg protein/mL, compound 1.5 μM, NADPH, 37° C., read-out: Half-life t1/2) is 10 h. Besides, the CLint scaled at 1.5 μM in series [1] (human liver microsomes, inferred in vivo intrinsic hepatic clearance rate) came to 2.9 mL/min/kg. Also, the bioavailability in series [2] (p.o. 5 mg/kg, i.v. 1 mg/kg, read-out: Oral bioavailability (F)) was determined as 50%. Also, in series [2] (5 mg/kg), the AUC(0-t) was determined as 20.9 µM·h, the Cmax was found to be 1700 nM and the half-life was 11.4 h. This compound also had a pIC50 at RORγ of 8.19. The compound `CCS(=O)(=O)c1ccc([C@H](CO)NC(=O)c2ccc(N3C[C@H](Oc4ccc(C(F)(F)F)cc4)C[C@H]3COCCC#N)cc2)cc1` [Example 32] showed a pIC50 against RORγ of 7.72. On to `CCS(=O)(=O)c1ccc(CNC(=O)c2ccc(N3C[C@@H](Oc4ccc(OC(F)(F)F)cn4)C[C@H]3COC(F)F)nc2)cc1` [Example 110], for which the pIC50 at RORγ was 7.96.

For `CCS(=O)(=O)c1ccc([C@H](CCO)NC(=O)c2ccc(N3C[C@@H](Oc4ccc(OC(F)(F)F)cn4)C[C@H]3COC(F)F)cc2)cc1` [Example 108], on RORγ, the pIC50 was 8.22. Same read-out and setting: to `CCS(=O)(=O)c1ccc([C@H](CO)NC(=O)c2ccc(N3C[C@H](Oc4ccc(C(F)(F)F)cc4)C[C@H]3COC(F)F)cc2)nc1` [Example 68] belongs 7.12; to `CCS(=O)(=O)c1ccc([C@H](CO)NC(=O)c2ccc(N3C[C@@H](Oc4ccc(C(F)(F)F)nc4)C[C@H]3COC(F)F)cc2)cc1` [Example 83], 8.22. In turn, `CCS(=O)(=O)c1ccc([C@H](CO)NC(=O)c2cnc(N3C[C@H](Oc4ccc(C(F)(F)F)cc4)C[C@H]3CCOC(F)F)nc2)cc1` [Example 63] had a pIC50 against RORγ of 7.32. `CCS(=O)(=O)c1ccc(CNC(=O)c2ccc(N3CCC(N(C)c4ccc(C(F)(F)F)cc4)C3)cc2)cc1` (stereo not shown) [Example 10, N-(4-(ethylsulfonyl)benzyl)-4-(3-(methyl(4-(trifluoromethyl)phenyl)amino)pyrrolidin-1-yl) benzamide]: the negative logarithm of the IC50 (pIC50) against RORγ was 7.64. `CCS(=O)(=O)c1ccc(CNC(=O)c2cnc(N3C[C@H](Oc4ccc(C(F)(F)F)cc4)C[C@H]3COCCF)nc2)cc1` [Example 58, N-(4-(ethylsulfonyl)benzyl)-2-((2S, 4R)-2-((2-fluoroethoxy)methyl)-4-(4-(trifluoromethyl)phenoxy)pyrrolidin-1-yl)pyrimidine-5-carboxamide] gave a negative logarithm of the IC50 (pIC50) against RORγ of 7.24.

Turning to `CCCCOC[C@@H]1C[C@@H](Oc2ccc(C(F)(F)F)cc2)CN1c1ccc(C(=O)N[C@@H](CO)c2ccc(S(=O)(=O)CC)cc2)cc1` [Example 28], at RORγ, the pIC50 was 7.88. As to `CCS(=O)(=O)c1ccc([C@H](CO)NC(=O)c2cnc(N3C[C@@H](Oc4ccc(C(F)(F)F)cc4)C[C@H]3COC(F)F)nc2)cc1` [Example 64], the pIC50 against RORγ was 8.52. Take `CCS(=O)(=O)c1ccc([C@H](CO)NC(=O)c2ccc(N3C[C@H](Oc4ccc(C(F)(F)F)cc4)C[C@H]3COCC3CC3)nc2)cc1` [Example 50]: the pIC50 at RORγ was 7.28. The compound `CCS(=O)(=O)c1ccc([C@H](CO)NC(=O)c2ccc(N3C[C@H](Oc4ccc(C(F)(F)F)cc4)C[C@H]3COCC(F)(F)F)cc2)cc1` [Example 30, N—((R)-1-(4-(ethylsulfonyl)phenyl)-2-hydroxyethyl)-4-((2S,4R)-2-((2,2,2-trifluoroethoxy)methyl)-4-(4-(trifluoromethyl)phenoxy)pyrrolidin-1-yl)benzamide] gave a negative-log IC50 (pIC50) against RORγ of 7.77.

Compound `CCS(=O)(=O)c1ccc([C@H](CCO)NC(=O)c2ccc(N3C[C@H](Oc4ccc(OC(F)(F)F)cc4)C[C@H]3COC(F)F)nc2)cc1` [Example 115] gave a pIC50 against RORγ of 7.89. On the same count and under the same terms, the result for `CCS(=O)(=O)c1ccc([C@H](CO)NC(=O)c2ccc(N3C[C@H](Oc4ccc(C(F)(F)F)cc4)C[C@H]3COCCC(F)F)cc2)cc1` [Example 44] reads 7.29. On RORγ, `CCS(=O)(=O)c1ccc([C@H](CO)NC(=O)c2ccc(N3C[C@H](Oc4ccc(C(F)(F)F)cc4)C[C@H]3COC(F)F)cc2)cc1` [Example 40] had a negative logarithm of the IC50 (pIC50) of 7.60. Regarding `CCS(=O)(=O)c1ccc(CNC(=O)c2ccc(N3CCC(Oc4ccc(C(F)(F)F)cc4)C3)cc2)cc1` (stereo not shown) [Example 9, N-(4-(ethylsulfonyl)benzyl)-4-(3-(4-(trifluoromethyl)phenoxy)pyrrolidin-1-yl)benzamide], the pIC50 against RORγ is 7.92. For `CCS(=O)(=O)c1ccc([C@H](CO)NC(=O)c2ccc(N3C[C@H](Oc4ccc(C(F)(F)F)cc4)C[C@H]3COCC3CC3)cc2)cc1` [Example 31], on RORγ, the pIC50 is 7.77. As for `CCS(=O)(=O)c1ccc([C@H](CO)NC(=O)c2ccc(N3C[C@H](Oc4ccc(C(F)(F)F)cc4)C[C@H]3COC)cc2)cc1` [Example 26, N—((R)-1-(4-(ethylsulfonyl)phenyl)-2-hydroxyethyl)-4-((2S,4R)-2-(methoxymethyl)-4-(4-(trifluoromethyl)phenoxy)pyrrolidin-1-yl)benzamide], the pIC50 against RORγ is 8.00. On RORγ, `CCS(=O)(=O)c1ccc(CNC(=O)c2ccc(N3C[C@H](Oc4ccc(C(F)(F)F)cc4)C[C@H]3COC)cc2)cc1` [Example 25, N-(4-(ethylsulfonyl)benzyl)-4-((2S,4R)-2-(methoxymethyl)-4-(4-(trifluoromethyl)phenoxy)pyrrolidin-1-yl)benzamide] gave a negative-log IC50 (pIC50) of 7.70.

`CCS(=O)(=O)c1ccc(CNC(=O)c2ccc(N3CCC(Nc4ccc(C(F)(F)F)cc4)C3)cc2)cc1` (stereo not shown) [Example 11, N-(4-(ethylsulfonyl)benzyl)-4-(3-((4-(trifluoromethyl)phenyl)amino)pyrrolidin-1-yl)benzamide] gave a pIC50 against RORγ of 7.47. On the same count and under the same terms, to `CCS(=O)(=O)c1ccc([C@H](CO)NC(=O)c2ccc(N3C[C@@H](Oc4ccc(C(F)(F)F)cc4)C[C@H]3COC(F)F)nc2OC)cc1` [Example 88] belongs 7.52.
